Test results reported in patent US20220064127A1, “PLATELET AGGREGATION INHIBITOR, PREPARATION AND USES THEREOF” (SHENYANG HINEWY PHARMACEUTICAL TECHNOLOGY CO., LTD., priority 2020, published 2022).

Experiments:
[1] = tested on: ADP-Induced Platelet Aggregation; experiment: Inhibition of ADP-induced platelet aggregation in rabbit platelet-rich plasma (microplate method); type: cell-based; conditions: Oryctolagus cuniculus, Platelet; rabbit PRP, inducer ADP, absorbance 655 nm; read-out: IC50 (Mean ± SE), ADP-induced platelet aggregation
Protocol: Example 62 Investigation on Inhibition of ADP-Induced Platelet Aggregation in Rabbit
A blood sample was collected from ear vein of a healthy male rabbit, added with 3.8% sodium citrate for anticoagulation and then centrifuged at 800 r/min for 10 min to prepare platelet-rich plasma (PRP) and at 3,000 r/min for 10 min to prepare platelet-poor plasma (PPP). The investigation on the plasma should be performed within 0.5-3 h after the preparation.
2. Determination of Platelet Aggregation by Microplate Method
The drugs to be tested were weighed and added with an appropriate amount of DMSO to prepare a series of 10 mM stock solutions, which were respectively diluted to prepare 10× stock solutions with normal saline for further use.
Several wells of a microplate were selected as test wells, which were added with 135 μL of PRP and then respectively added with 15 μL of the 10× stock solutions. A well in which 135 μL of PRP and 15 μL of normal saline were added was used as the vehicle control, and a well in which 135 μL of PPP and 15 μL of normal saline were added was used as the blank control. Duplicate wells were set for each test well. The plate was shaken, incubated at 37° C. for 5 min, and then measured for A0 at 655 nm. Subsequently, the microplate was added with 15 μL of an inducer […] (ADP) working solution (25 μmol/L) in each well, incubated at 37° C. under shaking and measured at 655 nm for A1, where the incubation time was determined according to the time in the pre-experiment when the maximum aggregation appeared. The platelet aggregation rate (AR) and platelet aggregation inhibition rate (AIR) were calculated according to the following formulas:
AR=(1−ARtest sample/ARcontrol)

[2] = tested on: carotid artery thrombus induced by ferric chloride; experiment: Effect of intragastric administration on FeCl3-induced carotid arterial thrombosis in male SD rats; type: in vivo, male Sprague Dawley (SD) rats; conditions: for Wet weight of thrombus: daily for one week, male SD rats, 20% FeCl3
Protocol: Example 63 Effect of Intragastric Administration of Compound LY-26y on Arterial Thrombosis in Male Sprague Dawley (SD) Rats
1. Experimental animals: 50 male SD rats, 260-320 g (n=10).
2. Main reagents: ferric chloride, urethane, 0.5% CMC-Na, 0.9% NaCl.
The 50 male SD rats were randomly and averagely divided into five groups, respectively model group, low-dose LY-26y group (5 mg/kg), medium-dose LY-26y group (10 mg/kg), high-dose LY-26y group (20 mg/kg) and positive control group (10 mg/kg ticagrelor). After experiencing one-week adaptation, the rats in the experimental groups were treated by intragastric administration of LY-26y by at 9 am every day, and the model group was treated with 0.5% CMC-Na solution. After continuously treated for one week, the rats were anesthetized by intraperitoneal injection of 20% urethane ([…]) 8 min after the last administration. Then the anesthetized rats were placed on an insulation plate (to maintain body temperature) in a supine position, and a straight incision was made on the midline of the neck to expose the right common carotid artery. A plastic film (1.5×1.0 cm^2) was placed under the artery to protect the surrounding tissues. The filter paper was cut into a size of 1.0×0.8 cm^2, soaked with a 20% FeCl3 solution and then used to coat the exposed artery for 30 min to induce […] thrombosis. After 2 h of the administration, a 1.5-cm […] carotid artery was collected and weighed, and then the blood vessel was cut to remove the thrombus therein to measure the weight of the blood vessel wall, where the weight difference was the weight of thrombus.

| Compound | IC50 [1] | also measured |
| --- | --- | --- |
| CCOC(=O)c1c(C)nc(-c2cccc(C#N)c2)n1OCc1ccc(C#N)cc1 [LY-26y, ethyl 1-[(4-cyanobenzyl)oxy]-2-(3-cyanophenyl)-4-methyl-1H-imidazole-5-carboxylate] | 4.237 ± 0.0156 µM | Wet weight of thrombus ([2]; 5 mg/kg intragastric): 6.38 ± 0.18 mg; Wet weight of thrombus ([2]; 10 mg/kg intragastric): 4.89 ± 0.33 mg; Wet weight of thrombus ([2]; 20 mg/kg intragastric): 4.39 ± 0.26 mg; Effect on weight of the FeCl3-induced arterial thrombus in rats ([2]; intragastric administration, in words): significantly reduced |
| CCCSc1nc(N[C@@H]2C[C@H]2c2ccc(F)c(F)c2)c2nnn([C@@H]3C[C@H](OCCO)[C@@H](O)[C@H]3O)c2n1 [Ticagrelor, reference compound] | 7.21 ± 0.251 µM | Wet weight of thrombus ([2]; 10 mg/kg intragastric): 5.01 ± 0.16 mg |
| CCOC(=O)c1c(C)nc(-c2cccc(C#N)c2)n1OCc1ccccc1F [LY-26l, ethyl 2-(3-cyanophenyl)-1-[(2-fluorobenzyl)oxy]-4-methyl-1H-imidazole-5-carboxylate] | 5.88 ± 0.196 µM |  |
| Cc1nc(-c2cccc(C#N)c2)n(O)c1C(=O)O [LY-11, 2-(3-cyanophenyl)-1-hydroxy-4-methyl-1H-imidazole-5-carboxylic acid] | 7.865 ± 0.0365 µM |  |
| CCOC(=O)COn1c(-c2cccc(C#N)c2)nc(C)c1C(=O)OCC [LY-26g, ethyl 2-(3-cyanophenyl)-1-(2-ethoxy-2-oxoethoxy)-4-methyl-1H-imidazole-5-carboxylate] | 6.8 ± 0.152 µM |  |
| C=CCOn1c(-c2cccc(C#N)c2)nc(C)c1C(=O)O [LY-27d, 4-methyl-2-(3-cyanophenyl)-1-allyloxy-1H-imidazole-5-carboxylic acid] | 6.35 ± 0.469 µM |  |
| C=CCOn1c(-c2cccc(C#N)c2)nc(C)c1C(=O)OCC [LY-26d, ethyl 1-(allyloxy)-2-(3-cyanophenyl)-4-methyl-1H-imidazole-5-carboxylate] | 5.856 ± 0.0165 µM |  |
| CCOC(=O)c1c(C)nc(-c2cccc(C#N)c2)n1OCc1ccc(F)cc1 [LY-26n, ethyl 2-(3-cyanophenyl)-1-[(4-fluorobenzyl)oxy]-4-methyl-1H-imidazole-5-carboxylate] | 5.88 ± 0.196 µM |  |
| CCOC(=O)c1c(C)nc(-c2cccc(-c3nnn[nH]3)c2)n1O [LY-13, ethyl 2-[3-(1H-tetrazol-5-yl)phenyl]-1-hydroxy-4-methyl-1H-imidazole-5-carboxylate] | 21.9 ± 0.865 µM |  |
